In patent publication US11780826B2 (Amgen Inc., priority 2017, dated 2023):

Test system: Bovine cardiac myofibrils
Experiment: In vitro model of dose-dependent myofibril ATPase modulation (AC1.4, pyruvate kinase/lactate dehydrogenase-coupled ATPase assay at pCa25)
Type: biochemical
Conditions: concentration at which ATPase activity was 1.4-fold higher than the bottom of the dose curve, mean of a minimum of two independent tests
Experimental: In vitro Model of Dose-Dependent Myofibril ATPase Modulation: Dose responses were measured using a calcium-buffered, pyruvate kinase and lactate dehydrogenase-coupled ATPase assay containing the following reagents (concentrations expressed are final assay concentrations): Potassium PIPES (12 mM), MgCl2 (2 mM), ATP (1 mM), DTT (1 mM), BSA (0.1 mg/mi), NADH (0.5 mM), PEP (1.5 mM), pyruvate kinase (4 U/ml), lactate dehydrogenase (8 U/ml), and antifoam (90 ppm). The pH was adjusted to 6.80 at 22° C. by addition of potassium hydroxide.
Bovine cardiac myofibrils were obtained by homogenizing the appropriate tissue in the presence of detergent. Such treatment removes membranes and majority of soluble cytoplasmic proteins but leaves intact cardiac sarcomeric acto-myosin apparatus. Concentrations of myofibrils were adjusted to achieve the necessary rate of ATP hydrolysis (typically 0.25-1.0 mg/ml).
Assays were performed by first preparing a dilution series of test chemical entity, each with an assay mixture containing potassium Pipes, MgCl2, BSA, DTT, pyruvate kinase, lactate dehydrogenase, myofibrils, antifoam, EGTA, CaCl2, and water. The assay was started by adding an equal volume of solution containing potassium Pipes, MgCl2, BSA, DTT, ATP, NADH, PEP, antifoam, and water. ATP hydrolysis was monitored by absorbance at 340 nm. The resulting dose response curve was fit by the 4 parameter equation y=Bottom+((Top−Bottom)/(1+((EC50/X)^Hill))). […] AC1.4 values reported in the table below are mean values based on a minimum of two independent tests.

SMILES	AC1.4 [µM]
N#CC1CN(S(=O)(=O)N2CCC[C@H](C(=O)N3CC(F)(F)C[C@@H]3C(=O)NCc3ccc(C(F)(F)F)cc3)C2)C1 [Example 25, 1-(((3S)-1-((3-cyano-1-azetidinyl)sulfonyl)-3-piperidinyl)carbonyl)-4,4-difluoro-N-(4-(trifluoromethyl)benzyl)-D-prolinamide]	0.0289
CS(=O)(=O)c1ccc(NC2CC2)c(C(=O)N2CCC[C@@H]2C(=O)N[C@@H](c2ccc(C(F)(F)F)cc2F)C2CC2)c1 [Example 26, 1-(2-(cyclopropylamino)-5-(methylsulfonyl)benzoyl)-N-((R)-cyclopropyl(2-fluoro-4-(trifluoromethyl)phenyl)methyl)-D-prolinamide]	0.0296
N#CC1CN(S(=O)(=O)N2CCC[C@H](C(=O)N3CCC[C@@H]3C(=O)N[C@H](CC(F)(F)F)c3ccc(C(F)(F)F)cc3)C2)C1 [Example 28, 1-(((3S)-1-((3-cyano-1-azetidinyl)sulfonyl)-3-piperidinyl)carbonyl)-N-((1R)-3,3,3-trifluoro-1-(4-(trifluoromethyl)phenyl)propyl)-D-prolinamide]	0.03125
C[C@@H](NC(=O)[C@H]1CCCN1C(=O)[C@H]1CCCN(S(=O)(=O)N2CC(C#N)C2)C1)c1ccc(C(F)(F)F)cc1F [Example 29, 1-(((3S)-1-((3-cyano-1-azetidinyl)sulfonyl)-3-piperidinyl)carbonyl)-N-((1R)-1-(2-fluoro-4-(trifluoromethyl)phenyl)ethyl)-D-prolinamide]	0.03155
N#CC1CN(S(=O)(=O)c2cccc(C(=O)N3CCC[C@@H]3C(=O)N[C@@H](c3ccc(C(F)(F)F)cc3)C3CC3)c2)C1 [Example 30, 1-(3-((3-cyano-1-azetidinyl)sulfonyl)benzoyl)-N-((R)-cyclopropyl(4-(trifluoromethyl)phenyl)methyl)-D-prolinamide]	0.0318
N#CC1CN(S(=O)(=O)c2cccc(C(=O)N3CCC[C@@H]3C(=O)N[C@H](CO)c3ccc(C(F)(F)F)cc3)c2)C1 [Example 31, 1-(3-((3-cyano-1-azetidinyl)sulfonyl)benzoyl)-N-((1S)-2-hydroxy-1-(4-(trifluoromethyl)phenyl)ethyl)-D-prolinamide]	0.03275
N#CC1CN(S(=O)(=O)N2CCC[C@H](C(=O)N3CCC[C@@H]3C(=O)NCc3ccc(C(F)(F)F)c(F)c3)C2)C1 [Example 32, 1-(((3S)-1-((3-cyano-1-azetidinyl)sulfonyl)-3-piperidinyl)carbonyl)-N-(3-fluoro-4-(trifluoromethyl)benzyl)-D-prolinamide]	0.0335
N#CC1CN(S(=O)(=O)N2CCC[C@H](C(=O)N3[C@@H](C(=O)NCc4ccc(C(F)(F)F)cc4F)C[C@H]4C[C@H]43)C2)C1 [Example 33, (1R,3R,5R)-2-(((3S)-1-((3-cyano-1-azetidinyl)sulfonyl)-3-piperidinyl)carbonyl)-N-(2-fluoro-4-(trifluoromethyl)benzyl)-2-azabicyclo[3.1.0]hexane-3-carboxamide]	0.03455
CCNc1ccc(C)cc1C(=O)N1C[C@H](O)C[C@@H]1C(=O)N[C@@H](c1cc(F)c(Cl)cc1F)C1COC1 [Example 34, (4R)-N-((R)-(4-chloro-2,5-difluorophenyl)(3-oxetanyl)methyl)-1-(2-(ethylamino)-5-methylbenzoyl)-4-hydroxy-D-prolinamide]	0.0361
N#CC1CN(S(=O)(=O)N2CCC[C@H](C(=O)N3CCC[C@@H]3C(=O)N[C@@H](c3cc(F)c(C(F)(F)F)cc3F)C3CC3)C2)C1 [Example 35, 1-(((3S)-1-((3-cyano-1-azetidinyl)sulfonyl)-3-piperidinyl)carbonyl)-N-((R)-cyclopropyl(2,5-difluoro-4-(trifluoromethyl)phenyl)methyl)-D-prolinamide]	0.0372
N#CC1CN(S(=O)(=O)N2CCC[C@H](C(=O)N3CCC[C@@H]3C(=O)N[C@H](CCO)c3ccc(C(F)(F)F)cc3)C2)C1 [Example 36, 1-(((3S)-1-((3-cyano-1-azetidinyl)sulfonyl)-3-piperidinyl)carbonyl)-N-((1R)-3-hydroxy-1-(4-(trifluoromethyl)phenyl)propyl)-D-prolinamide]	0.03765
N#CC1CN(S(=O)(=O)c2cccc(C(=O)N3CCC[C@@H]3C(=O)N[C@H](c3ccc(C(F)(F)F)cc3)C3CC3)c2)C1 [Example 37, 1-(3-((3-cyano-1-azetidinyl)sulfonyl)benzoyl)-N-((S)-cyclopropyl(4-(trifluoromethyl)phenyl)methyl)-D-prolinamide]	0.0383
N#CC1CN(S(=O)(=O)N2CCC[C@H](C(=O)N3CCC[C@@H]3C(=O)NCc3ccc(C(F)(F)F)c(Cl)c3)C2)C1 [Example 38, N-(3-chloro-4-(trifluoromethyl)benzyl)-1-(((3S)-1-((3-cyano-1-azetidinyl)sulfonyl)-3-piperidinyl)carbonyl)-D-prolinamide]	0.0394
N#CC1CN(S(=O)(=O)N2CCC[C@H](C(=O)N3CCC[C@@H]3C(=O)N[C@@H](c3cc(F)c(Cl)cc3F)C3CC3)C2)C1 [Example 39, N-((R)-(4-chloro-2,5-difluorophenyl)(cyclopropyl)methyl)-1-(((3S)-1-((3-cyano-1-azetidinyl)sulfonyl)-3-piperidinyl)carbonyl)-D-prolinamide]	0.0394
CS(=O)(=O)c1ccc(NC2CCC2)c(C(=O)N2[C@@H](C(=O)N[C@@H](c3ccc(C(F)(F)F)cc3F)C3CC3)C[C@H]3C[C@H]32)c1 [Example 40, (1R,3R,5R)-2-(2-(cyclobutylamino)-5-(methylsulfonyl)benzoyl)-N-((R)-cyclopropyl(2-fluoro-4-(trifluoromethyl)phenyl)methyl)-2-azabicyclo[3.1.0]hexane-3-carboxamide]	0.0398
C[C@@H](NC(=O)[C@H]1CCCN1C(=O)c1cccc(S(=O)(=O)N2CC(C#N)C2)c1)c1ccc(C(F)(F)F)cc1 [Example 41, 1-((3-((3-cyano-1-azetidinyl)sulfonyl)phenyl)carbonyl)-N-((1R)-1-(4-(trifluoromethyl)phenyl)ethyl)-D-prolinamide]	0.04135
N#CC1CN(S(=O)(=O)c2cccc(C(=O)N3CCC[C@@H]3C(=O)NCc3ccc(C(F)(F)F)cc3F)c2)C1 [Example 42, 1-((3-((3-cyano-1-azetidinyl)sulfonyl)phenyl)carbonyl)-N-(2-fluoro-4-(trifluoromethyl)benzyl)-D-prolinamide]	0.04293
N#CC1CN(S(=O)(=O)c2cccc(C(=O)N3CCC[C@@H]3C(=O)NCc3ccc(Cl)cc3)c2)C1 [Example 43, N-(4-chlorobenzyl)-1-((3-((3-cyano-1-azetidinyl)sulfonyl)phenyl)carbonyl)-D-prolinamide]	0.04337
CS(=O)(=O)c1ccc(NC2CCC2)c(C(=O)N2CCC[C@@H]2C(=O)N[C@@H](c2ccc(C(F)(F)F)cc2F)C2CC2)c1 [Example 44, 1-(2-(cyclobutylamino)-5-(methylsulfonyl)benzoyl)-N-((R)-cyclopropyl(2-fluoro-4-(trifluoromethyl)phenyl)methyl)-D-prolinamide]	0.0434
CC(C)C[C@@H](NC(=O)[C@H]1CCCN1C(=O)c1cccc(S(=O)(=O)N2CC(C#N)C2)c1)c1ccc(C(F)(F)F)cc1 [Example 45, 1-(3-((3-cyano-1-azetidinyl)sulfonyl)benzoyl)-N-((1R)-3-methyl-1-(4-(trifluoromethyl)phenyl)butyl)-D-prolinamide]	0.0435
Cc1ccc([C@@H](C)NC(=O)[C@H]2CCCN2C(=O)c2cccc(S(=O)(=O)N3CC(C#N)C3)c2)c(F)c1 [Example 46, 1-((3-((3-cyano-1-azetidinyl)sulfonyl)phenyl)carbonyl)-N-((1R)-1-(2-fluoro-4-methylphenyl)ethyl)-D-prolinamide]	0.0456
N#CC1CN(S(=O)(=O)N2CCC[C@H](C(=O)N3CCC[C@@H]3C(=O)N[C@H](c3cc(F)c(Cl)cc3F)C3CNC3)C2)C1 [Example 47, N-((S)-3-azetidinyl(4-chloro-2,5-difluorophenyl)methyl)-1-(((3S)-1-((3-cyano-1-azetidinyl)sulfonyl)-3-piperidinyl)carbonyl)-D-prolinamide]	0.0527
C[C@@H](NC(=O)[C@H]1CCCN1C(=O)[C@H]1CCCN(S(=O)(=O)N2CC(C#N)C2)C1)c1cc(F)c(Cl)cc1F [Example 48, N-((1R)-1-(4-chloro-2,5-difluorophenyl)ethyl)-1-(((3S)-1-((3-cyano-1-azetidinyl)sulfonyl)-3-piperidinyl)carbonyl)-D-prolinamide]	0.0531
C[C@@H](NC(=O)[C@H]1CCCN1C(=O)c1cccc(S(=O)(=O)N2CC(C#N)C2)c1)c1ccc(C(F)F)cc1F [Example 49, 1-((3-((3-cyano-1-azetidinyl)sulfonyl)phenyl)carbonyl)-N-((1R)-1-(4-(difluoromethyl)-2-fluorophenyl)ethyl)-D-prolinamide]	0.05315
